Key:
[1] = test system: Zymosan Induced Peritonitis in Mice; settings: for effect on PMN influx: H4 ANTAG #1 10 mg/kg, Imetit 5 mg/kg, thioperamide 5 mg/kg, 4 h after zymosan; for PMN (10^6 per mouse) Mean: group mean, s.c. at -15 min and +2 h (H4 ANTAG #1 10 mg/kg; Imetit, Thioperamide 5 mg/kg), lavage 4 h after zymosan
[2] = biological target: rat histamine H4 receptor (Rattus norvegicus, UniProt Q91ZY1); assay: biochemical
[3] = biological target: guinea pig histamine H4 receptor (Cavia porcellus, UniProt Q91ZY3); assay: biochemical
Sequence of guinea pig histamine H4 receptor (Q91ZY3 1-389): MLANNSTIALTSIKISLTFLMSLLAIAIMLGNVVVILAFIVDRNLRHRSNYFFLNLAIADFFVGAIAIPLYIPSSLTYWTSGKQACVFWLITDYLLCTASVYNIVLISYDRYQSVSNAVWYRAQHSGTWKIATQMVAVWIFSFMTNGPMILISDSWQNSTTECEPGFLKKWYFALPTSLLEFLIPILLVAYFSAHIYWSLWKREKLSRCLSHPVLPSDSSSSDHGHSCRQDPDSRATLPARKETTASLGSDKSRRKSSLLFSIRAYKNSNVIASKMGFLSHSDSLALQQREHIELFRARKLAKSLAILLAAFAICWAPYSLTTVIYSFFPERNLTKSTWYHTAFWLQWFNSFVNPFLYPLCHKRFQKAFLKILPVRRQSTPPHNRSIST

[4] = biological target: T1, human histamine H4 receptor (Homo sapiens, UniProt Q9H3N8); assay: biochemical
T1 sequence (Q9H3N8 whole entry): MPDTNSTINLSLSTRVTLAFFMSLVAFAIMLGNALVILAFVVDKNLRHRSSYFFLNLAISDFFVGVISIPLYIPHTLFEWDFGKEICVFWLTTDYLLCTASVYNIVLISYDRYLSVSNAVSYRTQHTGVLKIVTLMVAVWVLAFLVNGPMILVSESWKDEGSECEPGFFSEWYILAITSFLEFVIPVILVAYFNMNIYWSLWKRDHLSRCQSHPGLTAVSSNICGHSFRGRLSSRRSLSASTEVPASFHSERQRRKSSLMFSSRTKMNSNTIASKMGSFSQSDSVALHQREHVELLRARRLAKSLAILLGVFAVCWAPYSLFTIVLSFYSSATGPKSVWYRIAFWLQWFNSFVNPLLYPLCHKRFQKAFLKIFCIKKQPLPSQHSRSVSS

[5] = biological target: T1, human histamine H4 receptor; settings: SK-N-MC or COS7 cells expressing human histamine H4 receptor
[6] = test system: Croton Oil Induced Topical Inflammation in Mice; settings: 6 h after croton oil
[7] = biological target: T1, human histamine H4 receptor; settings: histamine 100 pM-100 uM; forskolin 3 uM; SK-N-MC cells

Sequence of rat histamine H4 receptor (Q91ZY1 whole entry): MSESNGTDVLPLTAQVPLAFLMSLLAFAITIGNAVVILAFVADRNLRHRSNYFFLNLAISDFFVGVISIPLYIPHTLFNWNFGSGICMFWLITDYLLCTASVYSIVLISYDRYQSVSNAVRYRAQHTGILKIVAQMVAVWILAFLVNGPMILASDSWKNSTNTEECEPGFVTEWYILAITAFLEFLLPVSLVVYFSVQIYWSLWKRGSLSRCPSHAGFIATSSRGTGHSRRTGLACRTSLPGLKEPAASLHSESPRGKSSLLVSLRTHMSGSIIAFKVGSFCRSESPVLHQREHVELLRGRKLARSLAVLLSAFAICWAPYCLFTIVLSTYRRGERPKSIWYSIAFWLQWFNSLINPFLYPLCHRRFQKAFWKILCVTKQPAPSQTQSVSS

Row | Molecule | Ki [2] [nM] | Ki [3] [nM] | Ki [4] [nM] | further results
1 | N=C(N)SCCc1cnc[nH]1 [Imetit] | 6.8 | 30 | 1.3 | effect on PMN influx [1]: inactive; PMN (10^6 per mouse) Mean [1]: 17.3 10^6 per mouse
2 | ^3H-histamine | – | – | – | ^3H-histamine binding [5]: high affinity
3 | CNCCc1c[nH]cn1 [N-methylhistamine] | 552 | 220 | 48 | –
4 | S=C(NC1CCCCC1)N1CCC(c2cnc[nH]2)CC1 [Thioperamide] | – | 83 | – | effect on PMN influx [1]: significant inhibitory effect; PMN (10^6 per mouse) Mean [1]: 9.3 10^6 per mouse; % inhib (PMN) ([1]; vs PBS + zymosan, 4 h, doses as in Table 1, s.c.): (−46%)
5 | COc1ccc2c(c1)c(CC(=O)O)c(C)n2C(=O)c1ccc(Cl)cc1 [Indomethacin] | – | – | – | Difference in ear thickness (×0.01 mm) Mean ([6]; group mean, s.c. ×3 (H4 ANTAG #1 10 mg/kg; Indomethacin 30 mg/kg)): 10.0 ×0.01 mm; % inhib (ear swelling) ([6]; vs vehicle, s.c. ×3): (−40%)
6 | NC(=NCc1ccc(Cl)cc1)SCCCc1cnc[nH]1 [Clobenpropit] | 63 | 3.6 | 4.9 | –
7 | NCCc1c[nH]cn1 [Histamine] | – | 27 | – | activation of recombinant human histamine H4 receptor (decrease of forskolin-raised cAMP), words [7]: specifically activated
